From the OligoGym collection
“And” between values parts separate entries of the source, which are not always exact repeats. Equal values may be shown once. After the bases stand the sugars from the 5' end (letter, count) and the backbone: PS all phosphorothioate, else s phosphorothioate and o phosphodiester by linkage. Methylation of C is not given here. e = 2'-O-(2-methoxyethyl) (MOE); k = constrained ethyl (cEt); d = 2'-deoxy (DNA)

Molecular target: SOD1
Conditions: ASO

GGATACATTTCTACAGC (sugars e5 d8 k2 e2, linkages s1 o3 s9 o1 s2)
target mRNA inhibition (A431, 0.062 µM): 2%
target mRNA inhibition (A431, 0.185 µM): 4%
target mRNA inhibition (A431, 0.556 µM): 15%
target mRNA inhibition (A431, 1.667 µM): 19%
target mRNA inhibition (A431, 5 µM): 37%
target mRNA inhibition (A431, 15 µM): 44%
target mRNA inhibition (SH-SY5Y, 0.062 µM): 0%
target mRNA inhibition (SH-SY5Y, 0.185 µM): 0%
target mRNA inhibition (SH-SY5Y, 0.556 µM): 12%
target mRNA inhibition (SH-SY5Y, 1.667 µM): 30%
target mRNA inhibition (SH-SY5Y, 5 µM): 56%
target mRNA inhibition (SH-SY5Y, 15 µM): 68%

GGATACATTTCTACAGCT (sugars e5 d8 e5, linkages s1 o3 s9 o2 s2)
target mRNA inhibition (A431, 0.12 µM): 0%
target mRNA inhibition (A431, 0.6 µM): 25%
target mRNA inhibition (A431, 3 µM): 29%
target mRNA inhibition (A431, 15 µM): 50%
target mRNA inhibition (HepG2, 0.222 µM): 38%
target mRNA inhibition (HepG2, 0.667 µM): 62%
target mRNA inhibition (HepG2, 2 µM): 82%
target mRNA inhibition (HepG2, 6 µM): 94%

GGCAAAATACAGGTCAT (sugars e3 k2 d7 k2 e3, PS)
target mRNA inhibition (HepG2, 3 µM): 39%

GGCCAATGATGCAATGGTCT (sugars e5 d10 e5, PS)
target mRNA inhibition (HepG2, 5 µM): 9%

GGCCACACCATCTTTGTCAG (sugars e5 d10 e5, PS)
target mRNA inhibition (HepG2, 5 µM): 23% and 5%

GGCGATCCCAATTACAC (sugars e2 k2 d9 k2 e2, PS)
target mRNA inhibition (HepG2, 4 µM): 66%

GGGCCTCAGACTACATC (sugars e2 k2 d9 k2 e2, PS)
target mRNA inhibition (HepG2, 4 µM): 58%

GGGTTTTTATTCACAGG (sugars e3 k2 d7 k2 e3, PS)
target mRNA inhibition (HepG2, 3 µM): 17%

GGTCATTGAAACAGACA (sugars e3 k2 d7 k2 e3, PS)
target mRNA inhibition (HepG2, 3 µM): 11%

GGTCCATTACTTTCCTT (sugars e3 k2 d7 k2 e3, PS)
target mRNA inhibition (HepG2, 3 µM): 18%

GGTTTTTATTCACAGGC (sugars e2 k2 d9 k2 e2, PS)
target mRNA inhibition (HepG2, 4 µM): 45%
target mRNA inhibition (HepG2, 5 µM): 57%
target mRNA inhibition (HepG2, 12 µM): 51%

GGTTTTTATTCACAGGC (sugars e3 k2 d7 k2 e3, PS)
target mRNA inhibition (HepG2, 3 µM): 22%

GTCATTGAAACAGACAT (sugars e3 k2 d7 k2 e3, PS)
target mRNA inhibition (HepG2, 3 µM): 23%

GTCCATTACTTTCCTTC (sugars e3 k2 d7 k2 e3, PS)
target mRNA inhibition (HepG2, 3 µM): 33%

GTCCTTTAATGCTTCCCCAC (sugars e5 d10 e5, PS)
target mRNA inhibition (HepG2, 4 µM): 9%

GTCGCCCTTCAGCACGC (sugars e2 k2 d9 k2 e2, PS)
target mRNA inhibition (HepG2, 4 µM): 72%

GTCGCCCTTCAGCACGCA (sugars e5 d8 e5, linkages s1 o3 s9 o2 s2)
target mRNA inhibition (A431, 0.062 µM): 10%
target mRNA inhibition (A431, 0.185 µM): 11%
target mRNA inhibition (A431, 0.556 µM): 11%
target mRNA inhibition (A431, 1.667 µM): 3%
target mRNA inhibition (A431, 5 µM): 18%
target mRNA inhibition (A431, 15 µM): 4%
target mRNA inhibition (SH-SY5Y, 0.062 µM): 13%
target mRNA inhibition (SH-SY5Y, 0.185 µM): 4%
target mRNA inhibition (SH-SY5Y, 0.556 µM): 5%
target mRNA inhibition (SH-SY5Y, 1.667 µM): 40%
target mRNA inhibition (SH-SY5Y, 5 µM): 52%
target mRNA inhibition (SH-SY5Y, 15 µM): 77%

GTCTCCGCGACTACTTTATA (sugars e5 d10 e5, PS)
target mRNA inhibition (HepG2, 4 µM): 22%

GTCTCCTGAGAGTGAGATCA (sugars e5 d10 e5, PS)
target mRNA inhibition (HepG2, 5 µM): 23%

GTCTGGCAAAATACAGG (sugars e2 k2 d9 k2 e2, PS)
target mRNA inhibition (HepG2, 5 µM): 38%

GTGATTTAAGTCTGGCA (sugars e2 k2 d9 k2 e2, PS)
target mRNA inhibition (HepG2, 5 µM): 69%

GTGCCATACAGGGTTTT (sugars e2 k2 d8 k2 e3, PS)
target mRNA inhibition (HepG2, 5 µM): 20%

GTGCGGCCAATGATGCAATG (sugars e5 d10 e5, PS)
target mRNA inhibition (HepG2, 5 µM): 12%

GTTTAATGTTTATCAGG (sugars e2 k2 d9 k2 e2, linkages s1 o3 s9 o1 s2)
target mRNA inhibition (A431, 0.12 µM): 25%
target mRNA inhibition (A431, 0.6 µM): 69%
target mRNA inhibition (A431, 3 µM): 89%
target mRNA inhibition (A431, 15 µM): 95%
target mRNA inhibition (HepG2, 0.222 µM): 76%
target mRNA inhibition (HepG2, 0.667 µM): 90%
target mRNA inhibition (HepG2, 2 µM): 94%
target mRNA inhibition (HepG2, 6 µM): 93%

GTTTAATGTTTATCAGGA (sugars e5 d8 e5, linkages s1 o3 s9 o2 s2)
target mRNA inhibition (A431, 0.12 µM): 15%
target mRNA inhibition (A431, 0.6 µM): 51%
target mRNA inhibition (A431, 3 µM): 68%
target mRNA inhibition (A431, 15 µM): 84%
target mRNA inhibition (HepG2, 0.222 µM): 45%
target mRNA inhibition (HepG2, 0.667 µM): 73%
target mRNA inhibition (HepG2, 2 µM): 78%
target mRNA inhibition (HepG2, 6 µM): 87%

GTTTAATGTTTATCAGGATA (sugars e5 d10 e5, PS)
target mRNA inhibition (HepG2, 0.1875 µM): 15%
target mRNA inhibition (HepG2, 0.75 µM): 37%
target mRNA inhibition (HepG2, 3 µM): 70%
target mRNA inhibition (HepG2, 5 µM): 71%
target mRNA inhibition (HepG2, 12 µM): 88%

GTTTATTGGGCGATCCC (sugars e2 k2 d9 k2 e2, PS)
target mRNA inhibition (HepG2, 4 µM): 68%
